Reference: patent publication US20090036488A1, “RECURRENCE PREVENTIVE THERAPEUTIC AGENT FOR PSYCHOSTIMULANT-INDUCED PSYCHOSIS AND SCHIZOPHRENIA” (Tokyo Medical and Dental University, priority 2005, published 2009)

How the values were obtained:
[1] = test system: MAP reverse tolerance model; test: Test to confirm effects of administration with fluoxetine or paroxetine in the MAP reverse tolerance model; assay type: in vivo, mice
Description: Regarding formation of reverse tolerance, 1 mg/kg/day MAP was administered to eight-week-old male ddy mice for ten days as a pretreatment in a similar way to the abovementioned method. After a 11-day washout period, 10 mg/kg/day fluoxetine was then administered. Fluoxetine was prepared by dissolving in saline and administered by subcutaneous injection. In addition, after 9 to 11-day washout period, 0.24 mg/kg MAP was administered, the locomotor hyperactivity of the mice was measured and evaluated one hour later.
Regarding formation of reverse tolerance, MAP 1 mg/kg/day […] was administered to eight-week-old male ddy mice for ten days as a pretreatment in a similar way to the abovementioned method. After an 11-day washout period, 8 mg/kg/day paroxetine was then administered. Paroxetine was prepared by dissolving in saline and administered by subcutaneous injection. In addition, after 9 to 11-day washout period, 0.24 mg/kg MAP was administered, and the locomotor hyperactivity of the mice was measured and evaluated one hour later.

male ddy mice = test: Test for formation/maintenance of reverse tolerance; assay type: in vivo
Description: Methamphetamine (hereinafter, may be also referred to as “MAP”) which is a psychostimulant was administered to an animal, and then formation/maintenance of reverse tolerance was verified. In this test, eight-week-old male ddy mice were used. […] First, mice were divided into two groups, and then 1 mg/kg/day MAP and saline were respectively administered to each group for ten days as pretreatment. The agent was prepared by dissolving in saline and administered by subcutaneous injection. Hereinafter, the group to which MAP was administered is called “MAP administrated group”, and the group to which saline was administered is called “SAL administrated group”. MAP of 1 mg/kg used here corresponds an amount to result in increase in locomotor hyperactivity when it is administered to mice. In addition, a first administration of MAP was conducted after a 10-day washout period in order to confirm if this phenomenon was maintained. The dosage, 0.24 mg/kg, was less than that of the pretreatment, which is reportedly a quantity not causing abnormal behavior to appear in normal mice received the administration. Then, following a 29-day washout period, a second administration was conducted. Upon the administration on the day 10 and the day 29, MAP was also administered to the SAL administrated group in the same amount as administered to the MAP administrated group.
During the pretreatment, activity quantity in an hour was measured after MAP or saline administration on Days 1, 3, 7, and 10. […] In the case of a typical drug administration, tolerance is formed to gradually decrease influences of the administered drug.
In addition, comparing the MAP administrated group with the SAL administrated group, in both administrations on day 10 and day 29, it was clear that the activity quantity of the MAP administrated group was higher, so that it was confirmed that influences of the drug were maintained even after a longer than one-month washout period.

Fc1ccc([C@@H]2CCNC[C@H]2COc2ccc3c(c2)OCO3)cc1 [PLX, paroxetine]
locomotor hyperactivity vs group without PLX in the treatment phase (Example 2 vs Comparative Example 14) ([1]; MAP 1 mg/kg/day for 10 days, 11-day washout, paroxetine 8 mg/kg/day s.c., 9 to 11-day washout, 0.24 mg/kg MAP, measured one hour later): locomotor hyperactivity decreased | reverse tolerance, vs group in which reverse tolerance was not formed (Example 2 vs Comparative Example 10) ([1]; paroxetine 8 mg/kg/day s.c. after MAP pretreatment, 0.24 mg/kg MAP challenge): reverse tolerance disappeared | effect of PLX itself on activity quantity (Comparative Example 8 vs 9, 10 vs 11) ([1]; saline pretreatment, reverse tolerance not formed, paroxetine 8 mg/kg/day s.c.): did not decrease activity quantity

CNCCC(Oc1ccc(C(F)(F)F)cc1)c1ccccc1 (stereo not drawn) [FLX, fluoxetine]
locomotor hyperactivity vs group without FLX in the treatment phase (Example 1 vs Comparative Example 7) ([1]; MAP 1 mg/kg/day for 10 days, 11-day washout, fluoxetine 10 mg/kg/day s.c., 9 to 11-day washout, 0.24 mg/kg MAP, measured one hour later): locomotor hyperactivity decreased | reverse tolerance, vs group in which reverse tolerance was not formed (Example 1 vs Comparative Example 3) ([1]; fluoxetine 10 mg/kg/day s.c. after MAP pretreatment, 0.24 mg/kg MAP challenge): reverse tolerance disappeared | effect of FLX itself on activity quantity (Comparative Example 1 vs 2, 3 vs 4) ([1]; saline pretreatment, reverse tolerance not formed, fluoxetine 10 mg/kg/day s.c.): did not decrease the activity quantity

CN[C@@H](C)Cc1ccccc1 [MAP, Methamphetamine]
activity quantity after MAP re-administration, MAP administrated group vs SAL administrated group (male ddy mice; 0.24 mg/kg MAP on day 10 and day 29 after washout): higher | formation of reverse tolerance (male ddy mice; MAP 1 mg/kg/day s.c. for ten days): reverse tolerance was formed | activity quantity in an hour (locomotor hyperactivities per hour) during pretreatment (male ddy mice; MAP 1 mg/kg/day s.c. for ten days, measured on Days 1, 3, 7 and 10): increased in a time dependent manner
